Assay: xn = mol fraction of the nth substance listed
Conditions: 100 kPa, Liquid; for viscosity: Falling or rolling sphere viscometry; for mass density: Vibrating tube method

CN(C)C(=[NH2+])N(C)C.c1c[n-]cn1 [1,1,3,3-tetramethylguanidinium imidazol-1-ide] + CCCCO
Conditions	mass density, 293.15 K [kg/m3]	mass density, 298.15 K [kg/m3]	mass density, 303.15 K [kg/m3]	mass density, 308.15 K [kg/m3]	mass density, 313.15 K [kg/m3]	viscosity, 293.15 K [mPa·s]	viscosity, 298.15 K [mPa·s]	viscosity, 303.15 K [mPa·s]	viscosity, 308.15 K [mPa·s]	viscosity, 313.15 K [mPa·s]
x1 = 0.0499	828.74	824.87	820.97	817.04	813.07	3.053	2.7	2.399	2.141	1.92
x1 = 0.1004	845.73	841.79	837.82	833.83	829.83	3.248	2.868	2.549	2.276	2.04
x1 = 0.1999	875.01	870.95	866.87	862.77	858.67	3.727	3.272	2.89	2.569	2.298
x1 = 0.2997	899.57	895.41	891.24	887.07	882.9	4.41	3.801	3.323	2.931	2.604
x1 = 0.3985	920.24	916.05	911.78	907.55	903.31	5.155	4.414	3.823	3.343	2.948
x1 = 0.4997	938.26	933.99	929.7	925.4	921.09	6.003	5.029	4.322	3.751	3.286
x1 = 0.6499	960.31	955.97	951.62	947.27	942.92	7.076	5.887	5	4.267	3.737
x1 = 0.8002	978.39	974	969.59	965.19	960.8	8.02	6.617	5.547	4.739	4.097
x1 = 0.9004	988.56	984.14	979.72	975.28	970.84	8.6	7.032	5.877	5.021	4.299
x1 = 1	997.25	992.8	988.35	983.9	979.46	8.952	7.287	6.044	5.097	4.358

CN(C)C(=[NH2+])N(C)C.c1c[n-]cn1 [1,1,3,3-tetramethylguanidinium imidazol-1-ide] + CCCO
Conditions	mass density, 293.15 K [kg/m3]	mass density, 298.15 K [kg/m3]	mass density, 303.15 K [kg/m3]	mass density, 308.15 K [kg/m3]	mass density, 313.15 K [kg/m3]	viscosity, 293.15 K [mPa·s]	viscosity, 298.15 K [mPa·s]	viscosity, 303.15 K [mPa·s]	viscosity, 308.15 K [mPa·s]	viscosity, 313.15 K [mPa·s]
x1 = 0.0499	828.16	824.06	819.94	815.79	811.6	2.428	2.146	1.91	1.707	1.532
x1 = 0.0999	849.03	844.89	840.71	836.52	832.3	2.667	2.354	2.095	1.873	1.682
x1 = 0.2002	882.18	877.95	873.7	869.43	865.15	3.294	2.886	2.55	2.268	2.029
x1 = 0.2996	907.96	903.66	899.35	895.03	890.71	4.062	3.516	3.078	2.712	2.406
x1 = 0.4002	928.67	924.33	919.98	915.62	911.26	4.872	4.168	3.606	3.154	2.778
x1 = 0.4988	945.34	940.97	936.59	932.2	927.81	5.686	4.798	4.126	3.577	3.129
x1 = 0.6264	962.87	958.47	954.06	949.65	945.24	6.646	5.548	4.716	4.052	3.512
x1 = 0.8001	981.42	976.99	972.55	968.12	963.7	7.842	6.46	5.443	4.625	3.991
x1 = 0.9006	990.16	985.73	981.29	976.85	972.41	8.401	6.898	5.825	4.927	4.225
x1 = 1	997.25	992.8	988.35	983.9	979.46	8.952	7.287	6.044	5.097	4.358

CN(C)C(=[NH2+])N(C)C.c1c[n-]cn1 [1,1,3,3-tetramethylguanidinium imidazol-1-ide] + CCO
Conditions	mass density, 293.15 K [kg/m3]	mass density, 298.15 K [kg/m3]	mass density, 303.15 K [kg/m3]	mass density, 308.15 K [kg/m3]	mass density, 313.15 K [kg/m3]	viscosity, 293.15 K [mPa·s]	viscosity, 298.15 K [mPa·s]	viscosity, 303.15 K [mPa·s]	viscosity, 308.15 K [mPa·s]	viscosity, 313.15 K [mPa·s]
x1 = 0.0483	821.2	816.85	812.47	808.06	803.63	1.422	1.289	1.174	1.072	0.982
x1 = 0.0999	848.92	844.52	840.1	835.66	831.19	1.714	1.548	1.405	1.28	1.17
x1 = 0.2003	888.15	883.71	879.24	874.77	870.28	2.371	2.114	1.897	1.711	1.549
x1 = 0.3001	916.24	911.78	907.3	902.82	898.33	3.145	2.755	2.438	2.173	1.949
x1 = 0.3999	937.23	932.77	928.29	923.8	919.31	4.057	3.498	3.054	2.69	2.388
x1 = 0.5	953.33	948.83	944.31	939.83	935.34	5.057	4.296	3.643	3.174	2.822
x1 = 0.643	970.7	966.31	961.81	957.39	952.91	6.351	5.318	4.452	3.891	3.384
x1 = 0.7966	984.34	979.99	975.53	971.06	966.6	7.695	6.345	5.333	4.539	3.911
x1 = 0.8987	991.38	986.93	982.47	978.02	973.57	8.46	6.936	5.786	4.909	4.229
x1 = 1	997.25	992.8	988.35	983.9	979.46	8.952	7.287	6.044	5.097	4.358

CN(C)C(=[NH2+])N(C)C.c1c[n-]cn1 [1,1,3,3-tetramethylguanidinium imidazol-1-ide] + CO
Conditions	mass density, 293.15 K [kg/m3]	mass density, 298.15 K [kg/m3]	mass density, 303.15 K [kg/m3]	mass density, 308.15 K [kg/m3]	mass density, 313.15 K [kg/m3]	viscosity, 293.15 K [mPa·s]	viscosity, 298.15 K [mPa·s]	viscosity, 303.15 K [mPa·s]	viscosity, 308.15 K [mPa·s]	viscosity, 313.15 K [mPa·s]
x1 = 0.0501	840.28	835.36	830.44	825.51	820.57	0.905	0.829	0.765	0.709	0.659
x1 = 0.1005	872.86	868.04	863.19	858.35	853.49	1.272	1.108	1.014	0.931	0.859
x1 = 0.1957	912.69	907.98	903.25	898.51	893.76	1.979	1.768	1.592	1.442	1.314
x1 = 0.2953	938.06	933.41	928.74	924.08	919.38	2.761	2.423	2.148	1.918	1.724
x1 = 0.393	954.84	950.24	945.62	941	936.36	3.723	3.212	2.804	2.468	2.192
x1 = 0.5005	968.24	963.68	959.1	954.53	949.94	4.794	4.098	3.53	3.077	2.702
x1 = 0.6431	980.21	975.69	971.16	966.63	962.09	6.21	5.186	4.369	3.783	3.274
x1 = 0.7815	988.47	983.99	979.49	975	970.51	7.421	6.122	5.141	4.38	3.777
x1 = 0.8994	993.77	989.31	984.84	980.37	975.91	8.342	6.826	5.692	4.819	4.134
x1 = 1	997.25	992.8	988.35	983.9	979.46	8.952	7.287	6.044	5.097	4.358

From the NIST ThermoML archive (doi:10.1016/j.jct.2015.04.027)
